Experimental data from patent US20170096708A1, “DIAGNOSTIC METHOD” (Convergence Pharmaceuticals Limited, priority 2014, published 2017).
Where a name gives a salt, the structure may show the parent alone.

System: trigeminal neuralgia (TGN) patients
Test: 7 week randomized withdrawal trial with trigeminal neuralgia (TGN) patients
Type: in vivo, human
Source text: CNV1014802 is a novel Nav1.7 selective state-dependent sodium channel blocker that is being assessed in the treatment of trigeminal neuralgia. The trial used a randomized withdrawal design to assess efficacy in this rare condition and comprised a 21-day open-label phase followed by a randomized 28-day placebo-controlled phase for responders as described in Zakrzewska et al., (2013) Trials 14:402). Patients participated in an initial open-label treatment period of 21 days of CNV1014802 using 150 mg three times daily. Responders were then randomized to 28 days of CNV1014802 150 mg three times daily or placebo. A responder at the end of the open-label period was defined as a patient with one of the following: • 1) a 30% or more decrease in the total number of paroxysms over the last 7 days of the open-label phase as compared to the total number recorded in the 7-day baseline phase (day-7 to -1 prior to start of study medication, Run in); and/or • 2) a 30% reduction in the mean severity of pain experienced during the paroxysm over the last 7 days of the open-label phase as compared to the total number recorded in the 7-day baseline phase (day-7 to -1 prior to start of study medication, run in); and/or • 3) a Patient Global Improvement of Change rating of much improved/very much improved. Responders were randomized to CNV1014802 or placebo, in a 1:1 ratio. During the double-blind randomized phase, patients were evaluated at each clinic visit, which occurred every 7 days to determine whether they met the failure criteria in the double-blind treatment period. […]

**Q.** Which results are given for `NC(=O)[C@@H]1CC[C@H](c2ccc(OCc3ccccc3F)cc2)N1` [CNV1014802, (5R)-5-(4-{[(2-fluorophenyl)methyl]oxy}phenyl)-L-prolinamide hydrochloride salt]?
**A.** reduction in pain severity (150 mg three times daily, final week of double-blind (week 7) vs 7 day run-in, LOCF, compared to placebo group, p=0.04, FIG. 1): superior; reduction in the number of paroxysms (150 mg three times daily, final week of double-blind (week 7) vs 7 day run-in, LOCF, compared to placebo group, p=0.08, FIG. 1): superior; response to treatment in patients with genetic variations within the CACNA1A gene and/or the CACNA1B gene (all patients with genetic variations, responder criteria of the 21-day open-label phase): responded to treatment
